From US20110020279A1 (priority 2010, published 2011)
Entries after “also recorded” stand apart in the source; their conditions may differ.

Key:
[1] = in vivo; cited from earlier work
activated microglia = conditions: cited from earlier work
rabies virus [2] = conditions: cited from earlier work
[3] = test system: vesicular stomatitis virus; conditions: cited from earlier work
rabies virus [4] = conditions: in vivo; cited from earlier work
[5] = human, in vivo
HIV virus = conditions: cited from earlier work
rabies virus [6] = conditions: human, in vivo, cited from earlier work
[7] = in vivo, iv; cited from earlier work
rabies virus [8] = conditions: cited from earlier work; remark: listed apart in the source
rabies virus [9] = conditions: cited from earlier work; remark: listed apart in the source
poliovirus type 1 = conditions: cited from earlier work
herpes simplex virus = conditions: cited from earlier work
[10] = in vivo; cited from earlier work; remark: listed apart in the source
[11] = test system: LPS-activated macrophages; conditions: cited from earlier work
[12] = in vivo; cited from earlier work; remark: listed apart in the source
rabies virus [13] = conditions: rat, in vivo; cited from earlier work
[14] = test system: MCF-7 human breast cancer cells; conditions: cited from earlier work
[15] = parameters: species or system humans; conditions: human, in vivo
[16] = in vivo
[17] = mouse, in vivo; cited from earlier work
[18] = in vivo; cited from earlier work; remark: listed apart in the source

NPH (isophane) insulin
Effective duration of action [1]: 10 to 16 h | Maximum duration [1]: 14 to 18 h | Onset of Action [1]: 2 to 4 h | Peak Action [1]: 6 to 10 h

C[C@]12CC[C@@H]3c4ccc(O)cc4CC[C@H]3[C@@H]1C[C@@H](O)[C@@H]2O [Estriol]
NO and TNF-alpha production by activated microglia (activated microglia): inhibits

CC[C@]1(O)C[C@@H]2CN(CCc3c([nH]c4ccccc34)[C@@](C(=O)OC)(c3cc4c(cc3OC)N(C)[C@H]3[C@@](O)(C(=O)OC)[C@H](OC(C)=O)[C@]5(CC)C=CCN6CC[C@]43[C@@H]65)C2)C1 [vinblastine]
rabies virus transport in neurites (rabies virus [2]): blocked

insulin detemir
Effective duration of action [1]: 14 h | Maximum duration [1]: ~20 h | Onset of Action [1]: 3 to 4 h | Peak Action [1]: 6 to 8 h

Oc1ccc(/C=C/c2cc(O)cc(O)c2)cc1 [Resveratol]
NO and TNF-alpha production by activated microglia (activated microglia): inhibits

CNC1(c2ccccc2Cl)CCCCC1=O (stereo not shown) [ketamine]
replication of vesicular stomatitis virus [3]: doesn't affect replication | rabies virus infection/spread in rat brain (rabies virus [4]): restricted viral spread; also recorded: reduced | initial cardiovascular effects [5]: tachycardia and elevated blood pressure | replication of HIV virus (HIV virus): doesn't affect replication | outcome of rabies therapy with ketamine and induced coma (rabies virus [6]): failed to save the patient's life | treatment of hiccup [7]: effectively | ketamine therapy of rabies in experimental studies (rabies virus [8]): poor and disappointing | rabies virus infection in primary neuron cultures (rabies virus [9]): inhibited | reduction in the levels of rabies virus mRNAs relative to untreated neurons (rabies virus [9]): 5- to 11 fold | viral nucleoprotein and glycoprotein syntheses (rabies virus [9]): inhibited | replication of poliovirus type 1 (poliovirus type 1): doesn't affect replication | replication of herpes simplex virus (herpes simplex virus): doesn't affect replication

NC(=O)c1ncn([C@@H]2O[C@H](CO)[C@@H](O)[C@H]2O)n1 [ribavirin]
outcome of antiviral therapy, intravenous (rabies virus [6]; iv): unsuccessful | outcome of therapy, combined intravenous and intrathecal administration (rabies virus [6]; iv): unsuccessful

insulin glargine
Effective duration of action [1]: 18 to 20 h | Maximum duration [1]: 20 to 24 h | Onset of Action [1]: 3 to 4 h | Peak Action [1]: 8 to 16 h

biopterin
post recovery paresis symptoms [10]: relieved

insulin lispro [IInsulin lispro]
Effective duration of action [1]: 3 to 4 h | Maximum duration [1]: 4 to 6 h | Onset of Action [1]: ¼-½ | Peak Action [1]: ½-1¼

regular (soluble) insulin
Effective duration of action [1]: 3 to 6 h | Maximum duration [1]: 6 to 8 h | Onset of Action [1]: ½-1 | Peak Action [1]: 2 to 3 h

insulin glulisine
Effective duration of action [1]: 3 to 4 h | Maximum duration [1]: 4 to 6 h | Onset of Action [1]: ¼-½ | Peak Action [1]: ½-1¼

CC(C)c1cccc(C(C)C)c1O [propofol]
LPS-induced NO biosynthesis [11]: significantly inhibited | levels of LPS-enhanced TNF-alpha, IL-1 beta, and IL-6 proteins [11]: significantly reduced | time to waking when not administered continuously [12]: 5 to 10 min

insulin aspart
Effective duration of action [1]: 3 to 4 h | Maximum duration [1]: 4 to 6 h | Onset of Action [1]: ¼-½ | Peak Action [1]: ½-1¼

COc1cc2c(c(OC)c1OC)-c1ccc(OC)c(=O)cc1[C@@H](NC(C)=O)CC2 [colchicine]
day post-infection until which no fluorescent foci could be detected (rabies virus [13]): 3 days | rabies virus transport in neurites (rabies virus [2]): blocked

C[C@]12N[C@H](Cc3ccccc31)c1ccccc12 [MK-801]
rabies virus infection in primary neuron cultures (rabies virus [9]): inhibited

COc1cc(/C=C/C(=O)CC(=O)/C=C/c2ccc(O)c(OC)c2)ccc1O [curcumin]
mRNA and protein levels of inducible nitric oxide synthase (iNOS) (activated microglia): suppresses

C[C@]12CCC(=O)C=C1CC[C@@H]1[C@@H]2[C@@H](O)C[C@@]2(C)[C@H]1CC[C@]2(O)C(=O)CO [cortisol]
release of TNF-alpha from LPS-treated microglial cells (activated microglia): inhibits

insulin
increase of the cytotoxic effect of methotrexate by insulin [14]: up to 10,000 fold | memory, attention, functioning, mood [15]: improves memory, attention, and functioning | hypoglycemic effects [16]: did not develop the hypoglycemic effects

interferon-Alfa
outcome of therapy, combined intravenous and intrathecal administration (rabies virus [6]; iv): unsuccessful

S [hydrogen sulfide]
blood pressure [17]: did not significantly decrease | health consequences afterwards [17]: no negative health consequences | borderline concentration for eye irritation [18]: 10-20 ppm | concentration at which olfactory nerve is paralyzed after a few inhalations [18]: 100-150 ppm | concentration causing immediate collapse with loss of breathing [18]: over 1000 ppm | concentration causing strong CNS stimulation, rapid breathing, loss of breathing [18]: 530-1000 ppm | concentration leading to eye damage [18]: 50-100 ppm | concentration leading to pulmonary edema with possibility of death [18]: 320-530 ppm | concentration with exposure limit of 8 hours per day [18]: Less than 10 ppm | lethal concentration for 50% of humans (LC50) [18]: 800 ppm

cytochalasin
rabies virus transport in neurites (rabies virus [2]): blocked

CC(=O)[C@H]1CC[C@H]2[C@@H]3CCC4=CC(=O)CC[C@]4(C)[C@H]3CC[C@]12C [progesterone]
NO and TNF-alpha production by activated microglia (activated microglia): inhibits
